# From patent US20230114753A1, “USE OF A GROUP OF MARKERS FOR DIAGNOSING AND ADJUSTING TREATMENT OF PRIMARY BILIARY CHOLANGITIS, PHARMACEUTICAL COMPOSITION AND SOLID DOSAGE FORM FOR TREATING PRIMARY BILIARY CHOLANGITIS” (MILI HEALTHCARE TRADE DMCC, LIMITED LIABILITY COMPANY, priority 2020, published 2023)
# “And” between values parts separate entries of the source, which are not always exact repeats. Equal values may be shown once. Read-outs that look alike come from different tables or passages of the source.
# Legend:
# [1] = Pharmacokinetics of obeticholic acid taken orally, in a monocomposition or with UDCA; type: in vivo
# Experimental: A study of the pharmacokinetics of obeticholic acid in a monocom position and as part of a composition with ursodeoxycholic acid when taken orally was conducted.
# [2] = test system: patients with PBC; assay: Effectiveness of the PBC treatment using various regimens (positive response, Paris2 system, 12 months); type: in vivo, human; settings: Paris2 criteria
# Experimental: A double-blind clinical study on the effectiveness of the combined pharmaceutical composition comprising UDCA and OCA compared to UDCA was conducted.
# To study the effectiveness, the tablet embodiments No. 15 and No. 16 were used.
# A study on the effectiveness of the various treatment regimens for the patients with PBC was conducted. A total of three treatment regimens were used in the study: • 1) UDCA monocomposition at a dose of 15 mg/kg/day. • 2) Combined pharmaceutical composition in the pharmaceutical form with the modified release and at a dose of UDCA 15 mg/kg+OCA 5 mg per day. • 3) Combined pharmaceutical composition in the pharmaceutical form with the modified release and at a dose of UDCA 15 mg/kg+OCA 10 mg per day.
# The studies were carried out for 12 months, during which the quality of the treatment was assessed by measuring biochemical and molecular biological markers (see above).
# The evaluation of the effectiveness of the treatment was carried out on the basis of the Paris2 system, according to which the criteria for a satisfactory treatment are: • ALT level≤3-fold upper limit of normal (ULN); • AST level≤2-fold ULN; • normal bilirubin level.
# [3] = test system: patients diagnosed with PBC; assay: Double-blind clinical study: biochemical and molecular markers in blood of PBC patients treated with UDCA or UDCA+OCA; type: in vivo, human; settings: blood plasma
# Experimental: To determine the concentration level values of the markers in the blood serum, chemiluminescence and enzyme immunoassay methods were used.
# A double-blind clinical study was conducted on the effectiveness of the combined pharmaceutical composition comprising UDCA and OCA compared with the monocomposition comprising only UDCA for the patients with the following concentration level values of the claimed group of the markers (corresponding to 1 Stage of PBC): • IL-6—at least 10%; • Nf-kB—at least 5%; • MCP-1/CCL2—at least 5%; • Bcl-2—at least 5%; • TNF-α—at least 12%; • MDA—at least 0.5%.
# The patients diagnosed with PBC were divided into 3 groups depending on the treatment regimen:
# 2) Group UDCA 15 mg/kg+OCA 5 mg;
# 3) Group UDCA 15 mg/kg+OCA 10 mg.
# After the treatment, venous blood samples were taken from the patients and the concentrations of biochemical and molecular markers were determined.
# As markers of the treatment effectiveness, two groups of markers were used: biochemical and molecular biological.
# The first group included: ALT, AST, GGT (Gamma-glutamyl Transferase), AP and total bilirubin.
# The second group included: TNF-α, IL-6, Nf-kB, MCP-1/CCL2, BCL-2, and MDA.
# [4] = month 6 of treatment, listed as UDCA 15 mg/kg
# [5] = month 12 of treatment, listed as UDCA 15 mg/kg
structure (smiles),measurement,setting,value
"CC[C@H]1[C@@H](O)[C@@H]2[C@H](CC[C@]3(C)[C@@H]([C@H](C)CCC(=O)O)CC[C@@H]23)[C@@]2(C)CC[C@@H](O)C[C@@H]12 [OCA, obeticholic acid]",AUC(0-t),"[1]; in vivo, po",34.8 ng·h/mL
same,bioavailability,"[1]; in vivo, po, read-out: Bioavailability",89%
same,Cmax,"[1]; in vivo, po, read-out: Cmax",16.7 ng/mL
same,Tmax,[1]; listed as OCA 5 mg,0.667 h
same,AUCt,[1]; listed as OCA 10 mg,66.1 ng·h/mL
same,Cmax,[1]; listed as OCA 10 mg,26.4 ng/mL
same,Tmax,[1]; listed as OCA 10 mg,1.5 h
same,bioavailability,[1]; listed as OCA 10 mg,91%
"C[C@H](CCC(=O)O)[C@H]1CC[C@H]2[C@@H]3[C@@H](O)C[C@@H]4C[C@H](O)CC[C@]4(C)[C@H]3CC[C@]12C [UDCA, ursodeoxycholic acid]",Number of patients with positive response to treatment (%),[2],58.82%
same,Number of patients with positive response to treatment (number),"[2]; groups of 68, 65, 63 patients",40
same,ALT,[3]; month 1 of treatment,80.4 U/l
same,"ALT, in % of the initial value",[3]; month 1 of treatment,97.22%
same,AP,[3]; month 1 of treatment,352.5 U/l
same,"AP, in % of the initial value",[3]; month 1 of treatment,97.20%
same,AST,[3]; month 1 of treatment,100.7 U/l
same,"AST, in % of the initial value",[3]; month 1 of treatment,95.72%
same,Bcl-2,[3]; month 1 of treatment,0.68 U/ml
same,"Bcl-2, in % of the initial value",[3]; month 1 of treatment,94.44%
same,GGT,[3]; month 1 of treatment,198 U/l
same,"GGT, in % of the initial value",[3]; month 1 of treatment,95.42%
same,IL-6,[3]; month 1 of treatment,23.35 pg/mL
same,"IL-6, in % of the initial value",[3]; month 1 of treatment,99.19%
same,MCP-1/CCL2,[3]; month 1 of treatment,465.4 pg/mL
same,"MCP-1/CCL2, in % of the initial value",[3]; month 1 of treatment,99.34%
same,MDA,[3]; month 1 of treatment,22.87 nmol/mL
same,"MDA, in % of the initial value",[3]; month 1 of treatment,99.09%
same,Nf-kB,[3]; month 1 of treatment,64.4 pg/mL
same,"Nf-kB, in % of the initial value",[3]; month 1 of treatment,98.32%
same,TNF-α,[3]; month 1 of treatment,0.33 ng/mL
same,"TNF-α, in % of the initial value",[3]; month 1 of treatment,100.00%
same,Total bilirubin,[3]; month 1 of treatment,39.8 µmol/L
same,"Total bilirubin, in % of the initial value",[3]; month 1 of treatment,96.18%
same,ALT,[3]; month 3 of treatment,74.81 U/l
same,"ALT, in % of the initial value",[3]; month 3 of treatment,90.46%
same,AP,[3]; month 3 of treatment,290.6 U/l
same,"AP, in % of the initial value",[3]; month 3 of treatment,88.10%
same,AST,[3]; month 3 of treatment,87.3 U/l
same,"AST, in % of the initial value",[3]; month 3 of treatment,82.98%
same,Bcl-2,[3]; month 3 of treatment,0.62 U/ml
same,"Bcl-2, in % of the initial value",[3]; month 3 of treatment,86.11%
same,GGT,[3]; month 3 of treatment,178.8 U/l
same,"GGT, in % of the initial value",[3]; month 3 of treatment,86.17%
same,IL-6,[3]; month 3 of treatment,22.95 pg/mL
same,"IL-6, in % of the initial value",[3]; month 3 of treatment,97.49%
same,MCP-1/CCL2,[3]; month 3 of treatment,448 pg/mL
same,"MCP-1/CCL2, in % of the initial value",[3]; month 3 of treatment,95.62%
same,MDA,[3]; month 3 of treatment,22.54 nmol/mL
same,"MDA, in % of the initial value",[3]; month 3 of treatment,97.66%
same,Nf-kB,[3]; month 3 of treatment,64.1 pg/mL
same,"Nf-kB, in % of the initial value",[3]; month 3 of treatment,97.86%
same,TNF-α,[3]; month 3 of treatment,0.324 ng/mL
same,"TNF-α, in % of the initial value",[3]; month 3 of treatment,98.18%
same,Total bilirubin,[3]; month 3 of treatment,33.8 µmol/L
same,"Total bilirubin, in % of the initial value",[3]; month 3 of treatment,87.50%
same,"ALT, in % of the initial value",[3]; [4],67.32% and 82.47%
same,"AP, in % of the initial value",[3]; [4],63.93% and 74.45%
same,"AST, in % of the initial value",[3]; [4],67.24% and 77.38%
same,"Bcl-2, in % of the initial value",[3]; [4],95.24% and 80.56%
same,"GGT, in % of the initial value",[3]; [4],65.16% and 75.28%
same,"IL-6, in % of the initial value",[3]; [4],85.81% and 93.46%
same,"MCP-1/CCL2, in % of the initial value",[3]; [4],88.00% and 92.08%
same,"MDA, in % of the initial value",[3]; [4],95.36% and 96.92%
same,"Nf-kB, in % of the initial value",[3]; [4],91.91% and 95.88%
same,"TNF-α, in % of the initial value",[3]; [4],87.88% and 95.45%
same,ALT,[3]; month 9 of treatment,62.47 U/l
same,"ALT, in % of the initial value",[3]; month 9 of treatment,75.54%
same,AP,[3]; month 9 of treatment,247.5 U/l
same,"AP, in % of the initial value",[3]; month 9 of treatment,69.18%
same,AST,[3]; month 9 of treatment,74.5 U/l
same,"AST, in % of the initial value",[3]; month 9 of treatment,70.82%
same,Bcl-2,[3]; month 9 of treatment,0.54 U/ml
same,"Bcl-2, in % of the initial value",[3]; month 9 of treatment,75.00%
same,GGT,[3]; month 9 of treatment,141.5 U/l
same,"GGT, in % of the initial value",[3]; month 9 of treatment,68.19%
same,IL-6,[3]; month 9 of treatment,21.48 pg/mL
same,"IL-6, in % of the initial value",[3]; month 9 of treatment,91.25%
same,MCP-1/CCL2,[3]; month 9 of treatment,419.7 pg/mL
same,"MCP-1/CCL2, in % of the initial value",[3]; month 9 of treatment,89.58%
same,MDA,[3]; month 9 of treatment,22.12 nmol/mL
same,"MDA, in % of the initial value",[3]; month 9 of treatment,95.84%
same,Nf-kB,[3]; month 9 of treatment,61.4 pg/mL
same,"Nf-kB, in % of the initial value",[3]; month 9 of treatment,93.74%
same,TNF-α,[3]; month 9 of treatment,0.3 ng/mL
same,"TNF-α, in % of the initial value",[3]; month 9 of treatment,90.91%
same,Total bilirubin,[3]; month 9 of treatment,28.03 µmol/L
same,"Total bilirubin, in % of the initial value",[3]; month 9 of treatment,70.49%
same,ALT,[3]; month 12 of treatment,55.67 U/l
same,"ALT, in % of the initial value",[3]; month 12 of treatment,67.32%
same,AP,[3]; month 12 of treatment,235.36 U/l
same,"AP, in % of the initial value",[3]; month 12 of treatment,63.93%
same,AST,[3]; month 12 of treatment,70.73 U/l
same,Bcl-2,[3]; month 12 of treatment,0.52 U/ml
same,GGT,[3]; month 12 of treatment,135.2 U/l
same,"GGT, in % of the initial value",[3]; month 12 of treatment,65.16%
same,IL-6,[3]; month 12 of treatment,20.2 pg/mL
same,"IL-6, in % of the initial value",[3]; month 12 of treatment,85.81%
same,MCP-1/CCL2,[3]; month 12 of treatment,412.3 pg/mL
same,"MCP-1/CCL2, in % of the initial value",[3]; month 12 of treatment,88.00%
same,MDA,[3]; month 12 of treatment,22.01 nmol/mL
same,"MDA, in % of the initial value",[3]; month 12 of treatment,95.36%
same,Nf-kB,[3]; month 12 of treatment,60.2 pg/mL
same,"Nf-kB, in % of the initial value",[3]; month 12 of treatment,91.91%
same,TNF-α,[3]; month 12 of treatment,0.29 ng/mL
same,"TNF-α, in % of the initial value",[3]; month 12 of treatment,87.88%
same,Total bilirubin,[3]; month 12 of treatment,26.03 µmol/L
same,"Total bilirubin, in % of the initial value",[3]; month 12 of treatment,64.58%
same,"AST, in % of the initial value",[3]; [5],67.24% and 67.23%
same,"Bcl-2, in % of the initial value",[3]; [5],72% and 72.22%
